Experimental findings from patent US9580430B2, “9H-pyrimido[4,5-B]indoles and related analogs as BET bromodomain inhibitors” (THE REGENTS OF THE UNIVERSITY OF MICHIGAN, priority 2014, dated 2017) are described below.

The target of one assay is T1, recombinant BRD4 BD1 (Homo sapiens, UniProt O60885).
T1 construct: for recombinant BRD4 BD1 and BRD4 BD2 proteins
Briefly: Competitive fluorescence-polarization (FP) binding assay, BRD4 BD1. Note: probe 1.5 nM. As to conditions: competitive FP assay; protein 10 nM, probe […]; read-out: IC50 (nM) BRD4 BD1. A digest of the protocol: (§1)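 Buffer: 100 mM potassium phosphate, pH 6.5, 0.01% Triton X-100; compounds added in buffer with 40% ethylene glycol to preformed complex of fluorescent probe with BRD4 BD1 (10 nM final) or BD2 (6 nM final). After 30 min at room temperature, polarization read. IC50 from nonlinear fits of competition curves, with Ki.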

The next assay concerns the target T2, recombinant BRD4 BD2 (Homo sapiens, UniProt O60885).
T2 construct: for recombinant BRD4 BD1 and BRD4 BD2 proteins
Briefly: Competitive fluorescence-polarization (FP) binding assay, BRD4 BD2. Note: probe 1.5 nM. As to conditions: competitive FP assay; protein 6 nM, probe […]; read-out: IC50 (nM) BRD4 BD2. The procedure, abridged:
as §1

The next assay has as its system MOLM-13. Briefly: Cell growth inhibition, MOLM-13 leukemia cells (CellTiter-Glo). It counts as cell-based. As to conditions: Homo sapiens, MOLM-13, 96 h; 4 days; read-out: IC50 (nM) MOLM-13 Cell Line (CellTiter-Glo assay). A digest of the protocol:
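Luminescent ATP-based viability (CellTiter-Glo, 10-20 min at room temperature) in compound-treated MOLM-13 cells; the half-maximal inhibitory concentration was calculated from the readout.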
For orientation: Cellular ATP, detected with luciferase, serves as a proxy for viable cell number.

The next assay has as its system MDA-MB-436. Briefly: Cell growth inhibition, MDA-MB-436 breast cancer cells (WST-8). Particulars: Homo sapiens, MDA-MB-436, 96 h; 4 days; read-out: IC50 (nM) MDA-MB-436 Cell Line (WST assay). It counts as cell-based. The procedure, abridged: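 IC50 was computed from WST-8-based cell counting in MDA-MB-436 cells, with absorbance read at 450 nm.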
On the technique in general: Tetrazolium assays rely on reduction of a dye to a coloured formazan, in cell work by metabolically active cells.

Structures are written as SMILES.

In the case of `COc1cc2c(cc1-c1c(C)noc1C)[nH]c1nc(C)nc(Nc3c(C)c(C)nn3C(C)C)c12` [Cpd. No. 81, 7-(3,5-dimethylisoxazol-4-yl)-N-(1-isopropyl-3,4-dimethyl-1H-pyrazol-5-yl)-6-methoxy-2-methyl-9H-pyrimido[4,5-b]indol-4-amine], the IC50 (in general, the midpoint of a concentration-inhibition curve) at recombinant BRD4 BD1 came out at 5.1 nM; on recombinant BRD4 BD2, 19.6 nM; with MOLM-13, 22.9 nM; in the assay on MDA-MB-436, 67 nM.
`COc1cc2c(cc1-c1c(C)noc1C)[nH]c1nc(C)nc(Nc3cn(C)cn3)c12` [Cpd. No. 166, 7-(3,5-dimethylisoxazol-4-yl)-6-methoxy-2-methyl-N-(1-methyl-1H-imidazol-4-yl)-9H-pyrimido[4,5-b]indol-4-amine]: the IC50 at recombinant BRD4 BD1 was determined as 119 nM; on recombinant BRD4 BD2, 161 nM; in the assay with MOLM-13, 504 nM; in the assay with MDA-MB-436, 1420 nM.
With `COc1cc2c(cc1-c1c(C)noc1C)[nH]c1nc(C)nc(Nc3ccc(OC)c4ccccc34)c12` [Cpd. No. 100, 7-(3,5-dimethylisoxazol-4-yl)-6-methoxy-N-(4-methoxynaphthalen-1-yl)-2-methyl-9H-pyrimido[4,5-b]indol-4-amine], the IC50 at recombinant BRD4 BD1 came to 99 nM; on recombinant BRD4 BD2, 89 nM; with MOLM-13, 147 nM; in the assay with MDA-MB-436 it was 235 nM.
Turning to `COc1cc2c(cc1-c1c(C)noc1C)[nH]c1nc(C)nc(Oc3cncc(Br)c3)c12` [Cpd. No. 105, 4-(4-(5-bromopyridin-3-yloxy)-6-methoxy-2-methyl-9H-pyrimido[4,5-b]indol-7-yl)-3,5-dimethylisoxazole], the IC50 is more than 1000 nM at recombinant BRD4 BD1, 868 nM at recombinant BRD4 BD2, 371 nM in the assay on MOLM-13 and 885 nM with MDA-MB-436.
For `COc1cc2c(cc1-c1c(C)noc1C)[nH]c1nc(C)nc(Nc3cc(C)cc(C)c3)c12` [Cpd. No. 237, 7-(3,5-dimethylisoxazol-4-yl)-N-(3,5-dimethylphenyl)-6-methoxy-2-methyl-9H-pyrimido[4,5-b]indol-4-amine], the IC50 was determined as 10 nM on recombinant BRD4 BD1, 5 nM on recombinant BRD4 BD2, 41 nM with MOLM-13 and 72 nM in the assay on MDA-MB-436.
In the same order, the values of `COc1cc2c(cc1-c1c(C)noc1C)[nH]c1nc(C)nc(Nc3c(C)cnn3C3CC3)c12` [Cpd. No. 197, N-(1-cyclopropyl-4-methyl-1H-pyrazol-5-yl)-7-(3,5-dimethylisoxazol-4-yl)-6-methoxy-2-methyl-9H-pyrimido[4,5-b]indol-4-amine] are 70.1 nM, 69.9 nM, 357 nM and 511 nM.
On to `COc1cc2c(cc1-c1c(C)noc1C)[nH]c1nc(C)nc(Nc3cc(C(F)(F)F)nn3C(C)C)c12` [Cpd. No. 22, 7-(3,5-Dimethylisoxazol-4-yl)-N-(1-isopropyl-3-(trifluoromethyl)-1H-pyrazol-5-yl)-6-methoxy-2-methyl-9H-pyrimido[4,5-b]indol-4-amine], for which the IC50 on recombinant BRD4 BD1 stood at 49.1 nM; at recombinant BRD4 BD2, 40.6 nM; in the assay with MOLM-13 it was 77.5 nM; in the assay with MDA-MB-436, 84.8 nM.
For `COc1cc2c(cc1-c1c(C)noc1C)[nH]c1nc(C)nc(Nc3cn(C)nc3C(C)(C)C)c12` [Cpd. No. 193, N-(3-(tert-butyl)-1-methyl-1H-pyrazol-4-yl)-7-(3,5-dimethylisoxazol-4-yl)-6-methoxy-2-methyl-9H-pyrimido[4,5-b]indol-4-amine], the IC50 at recombinant BRD4 BD1 was determined as 3.6 nM; on recombinant BRD4 BD2, 2.7 nM; with MOLM-13, 8.1 nM; in the assay on MDA-MB-436 it was 47.5 nM.
In the same order, the values of `COc1cc2c(cc1-c1c(C)noc1C)[nH]c1nc(C)nc(Nc3c(C)cnn3C)c12` [Cpd. No. 76, N-(1,4-dimethyl-1H-pyrazol-5-yl)-7-(3,5-dimethylisoxazol-4-yl)-6-methoxy-2-methyl-9H-pyrimido[4,5-b]indol-4-amine] are 29.4 nM, 23.7 nM, 117 nM and 156 nM.
For `COc1cc2c(cc1-c1c(C)noc1C)[nH]c1nc(C)nc(Nc3cccc(N(C)C)c3)c12` [Cpd. No. 230, N1-(7-(3,5-dimethylisoxazol-4-yl)-6-methoxy-2-methyl-9H-pyrimido[4,5-b]indol-4-yl)-N3,N3-dimethylbenzene-1,3-diamine], in that order: 13 nM, 8 nM, 71 nM and 123 nM.
In the same order, the values of `COc1cc2c(cc1-c1c(C)noc1C)[nH]c1nc(C)nc(Nc3cnc(C)n3C)c12` [Cpd. No. 171, N-(1,2-dimethyl-1H-imidazol-5-yl)-7-(3,5-dimethylisoxazol-4-yl)-6-methoxy-2-methyl-9H-pyrimido[4,5-b]indol-4-amine] are 153 nM, 79.5 nM, 609 nM and 1530 nM.
Consider `COc1cc2c(cc1-c1c(C)noc1C)[nH]c1nc(C)nc(Nc3c(-c4ccccc4)nn(C(C)C)c3C)c12` [Cpd. No. 4, 7-(3,5-Dimethylisoxazol-4-yl)-N-(1-isopropyl-5-methyl-3-phenyl-1H-pyrazol-4-yl)-6-methoxy-2-methyl-9H-pyrimido[4,5-b]indol-4-amine], for which the IC50 at recombinant BRD4 BD1 was determined as 52.9 nM; on recombinant BRD4 BD2, 21.7 nM; in the assay with MOLM-13 it was 69.3 nM; with MDA-MB-436, 249 nM.
For `COc1cc2c(cc1-c1c(C)noc1C)[nH]c1nc(C)nc(Nc3noc(C)c3C)c12` [Cpd. No. 222, N-(7-(3,5-dimethylisoxazol-4-yl)-6-methoxy-2-methyl-9H-pyrimido[4,5-b]indol-4-yl)-4,5-dimethylisoxazol-3-amine], in that order: 183 nM, 276 nM, 629 nM and 731 nM.
As for `COc1cc2c(cc1-c1c(C)noc1C)[nH]c1nc(C)nc(Nc3cnc4ccccn34)c12` [Cpd. No. 99, 7-(3,5-dimethylisoxazol-4-yl)-N-(imidazo[1,2-a]pyridin-3-yl)-6-methoxy-2-methyl-9H-pyrimido[4,5-b]indol-4-amine], the IC50 on recombinant BRD4 BD1 turned out to be 47 nM; at recombinant BRD4 BD2 it was 87 nM; in the assay on MOLM-13 it was 206 nM; with MDA-MB-436, 307 nM.
In the same order, the values of `COc1cc2c(cc1-c1c(C)noc1C)[nH]c1nc(C)nc(Nc3cn(C)nc3C)c12` [Cpd. No. 34, N-(1,3-dimethyl-1H-pyrazol-4-yl)-7-(3,5-dimethylisoxazol-4-yl)-6-methoxy-2-methyl-9H-pyrimido[4,5-b]indol-4-amine] are 30.2 nM, 28.7 nM, 32.7 nM and 97.6 nM.
On to `COc1cc2c(cc1-c1c(C)noc1C)[nH]c1nc(C)nc(Nc3cccc4[nH]ccc34)c12` [Cpd. No. 220, 7-(3,5-dimethylisoxazol-4-yl)-N-(1H-indol-4-yl)-6-methoxy-2-methyl-9H-pyrimido[4,5-b]indol-4-amine], for which the IC50 on recombinant BRD4 BD1 was 17 nM; on recombinant BRD4 BD2, 9 nM; with MOLM-13 it was 37 nM; in the assay on MDA-MB-436, 72 nM.
For `CCc1nn(CC)c(CC)c1Nc1nc(C)nc2[nH]c3cc(-c4c(C)noc4C)c(OC)cc3c12` [Cpd. No. 241, 7-(3,5-dimethylisoxazol-4-yl)-6-methoxy-2-methyl-N-(1,3,5-triethyl-1H-pyrazol-4-yl)-9H-pyrimido[4,5-b]indol-4-amine], in that order: 16 nM, 29 nM, 33 nM and 76 nM.
Take `COc1cc2c(cc1-c1c(C)noc1C)[nH]c1nc(C)nc(Nc3ccccc3)c12` [Cpd. No. 226, 7-(3,5-dimethylisoxazol-4-yl)-6-methoxy-2-methyl-N-phenyl-9H-pyrimido[4,5-b]indol-4-amine]: the concentration for half-maximal inhibition (IC50) on recombinant BRD4 BD1 amounted to 21 nM; on recombinant BRD4 BD2, 20 nM; in the assay on MOLM-13, 94 nM; in the assay on MDA-MB-436, 91 nM.
In the same order, the values of `COc1cc2c(cc1-c1c(C)noc1C)[nH]c1nc(C)nc(Nc3c(C)cnn3C3CCCC3)c12` [Cpd. No. 135, N-(1-Cyclopentyl-4-methyl-1H-pyrazol-5-yl)-7-(3,5-dimethylisoxazol-4-yl)-6-methoxy-2-methyl-9H-pyrimido[4,5-b]indol-4-amine] are 5.6 nM, 1.3 nM, 30.2 nM and 57.6 nM.
Take `COc1cc2c(cc1-c1c(C)noc1C)[nH]c1nc(C)nc(Nc3nn(C)c4cccc(F)c34)c12` [Cpd. No. 132, 7-(3,5-Dimethylisoxazol-4-yl)-N-(4-fluoro-1-methyl-1H-indazol-3-yl)-6-methoxy-2-methyl-9H-pyrimido[4,5-b]indol-4-amine]: the IC50 at recombinant BRD4 BD1 was 68.6 nM; on recombinant BRD4 BD2, 718 nM; with MOLM-13, 97.5 nM; in the assay on MDA-MB-436, 224 nM.
In the case of `COc1cc2c(cc1-c1c(C)noc1C)[nH]c1nc(C)nc(Nc3ccnn3C(C)C)c12` [Cpd. No. 175, 7-(3,5-dimethylisoxazol-4-yl)-N-(1-isopropyl-1H-pyrazol-5-yl)-6-methoxy-2-methyl-9H-pyrimido[4,5-b]indol-4-amine], the IC50 at recombinant BRD4 BD1 was 28.7 nM; on recombinant BRD4 BD2 it was 6.9 nM; in the assay with MOLM-13 it was 40.5 nM; with MDA-MB-436, 71 nM.
